In PMC8145938, “Triphenilphosphonium Analogs of Chloramphenicol as Dual-Acting Antimicrobial and Antiproliferating Agents” (Antibiotics, 2021):

Key:
E. coli 70S ribosomes = experiment: competition-binding assay with BODIPY-ERY (fluorescence anisotropy); conditions: for Kd: displacement of BODIPY-ERY from E. coli 70S ribosomes, read-out: apparent dissociation constant (KDapp)
Description: All new semi-synthetic CAM-Cn-TPP compounds were expected to bind and act on bacterial ribosomes by inhibiting protein synthesis, which is similar to CAM-C4-TPP and the PTC-targeting parent antibiotic CHL. To assess the affinity of CAM-C10-TPP and CAM-C14-TPP for the bacterial 70S ribosome (Figure 2A), a competition-binding assay exploiting BODIPY-labeled erythromycin (BODIPY-ERY) was used. […] It is likely that in the case of CAM-C14-TPP, the linker may be too long, preventing the optimal positioning of the TPP moiety in the NPET. Thus, CAM-C10-TPP and CAM-C14-TPP bind to the bacterial ribosome. However, their affinity strongly depends on the length of the linker connecting the two […]. Among the three CAM-Cn-TPPs, the C10-linker was optimal in terms of its ability to bind to the 70S ribosome.
The binding affinity of CAM-Cn-TPP to E. coli ribosomes was analyzed by a competition-binding assay using the fluorescently-labeled BODIPY-ERY, as described before. BODIPY-Ery (16 nM) was incubated with the ribosomes (50 nM) in the buffer containing 20 mM HEPES-KOH (pH 7.5), 50 mM NH4Cl, 10 mM Mg(CH3COO)2, 4 mM mercaptoethanol, and 0.05% Tween-20 for 30 min at 25 °C. Solutions of CHL, CAM-Cn-TPP, and CnTPP in different concentration ranges were added to the formed complex. The mixture was incubated for 2 h, until an equilibrium was reached, and the values of fluorescence anisotropy were measured by VICTOR X5 Multilabel Plate Reader (Perkin Elmer, Waltham, MA, USA). The dissociation constants were calculated based on the assumption of the equilibrium competitive binding of two ligands at a single binding site, as described in [70].

VA13 = experiment: MTT assay growth inhibition; format: cell-based; conditions: VA-13, 72 h, read-out: 50% growth inhibition concentration (GI50)
Method: (§1) The cytotoxicity of the tested substances was tested using the MTT (3-(4,5-dimethylthiazol-2-yl)-2,5-diphenyltetrazolium bromide) assay, with some modifications, and 2500 cells per well for the MCF7, HEK293T, and A549 cell lines or 4000 cells per well for the VA-13 cell line were plated in 135 µL of DMEM-F12 media (Gibco, Waltham, MA, USA) in a 96-well plate and incubated in the 5% CO2 incubator for first 16 h, without treatment. Then, 15 µL of media-DMSO solutions of the tested substances was added to the cells (the final DMSO concentrations in the media were 1% or less) and treated cells for 72 h with 25 nM–50 µM (eight dilutions) of our substances (triplicate each), and serial DMSO dilutions and doxorubicin were used as controls. The MTT reagent (Paneco LLC, Moscow, Russia) was then added to cells to a final concentration of 0.5 g/L (10× stock solution in PBS was used) and incubated for 2.5 h at 37 °C in the incubator under an atmosphere of 5% CO2. The MTT solution was then discarded, and 140 µL of DMSO (PharmaMed LLC, Krasnodarsky Krai, Russia) was added. The plates were swayed on a shaker (60 rpm) to dissolve the formazan. The absorbance was measured using a microplate reader (VICTOR X5 Light Plate Reader, PerkinElmer, Waltham, MA, USA) at a wavelength of 565 nm (in order to measure formazan concentration). The results were used to construct a dose-response graph and to estimate the CC50 value.

HEK293T = experiment: MTT assay growth inhibition; format: cell-based; conditions: Homo sapiens, HEK-293T, 72 h, read-out: 50% growth inhibition concentration (GI50)
Method: as §1

MCF7 = experiment: MTT assay growth inhibition; format: cell-based; conditions: Homo sapiens, 72 h, read-out: 50% growth inhibition concentration (GI50)
Method: as §1

[1] = test system: E. coli BW25113 ΔtolC pDualrep2 reporter strain; experiment: pDualrep2 double fluorescent reporter assay on agar plate; format: cell-based; conditions: compound spotted on agar lawn, overnight 37 °C
Description: Next, we tested the effects of CAM-C10-TPP and CAM-C14-TPP in bacterial cells using an E. coli ∆tolC-based reporter system, which is designed to screen inhibitors targeting either protein synthesis or DNA replication. In this reporter system, the gene of the far-red fluorescent protein, katushka2S, is inserted downstream of the genetically modified tryptophan attenuator, making it possible to express Katushka2S only upon exposure to ribosome-stalling compounds (Figure 2B, CHL and ERY, red pseudocolor rings).
Reporter strain […] [71] ΔtolC (BW25113) pDualrep2 was used, as previously described. The tested antibiotics, CAM-C10-TPP (10 mM, 1.5 μL), CAM-C14-TPP (10 mM, 1.5 μL), C10-TPP (10 mM, 1.5 μL), C14-TPP (10 mM, 1.5 μL), CAM (10 mM, 1.5 μL), CAM-Ac (10 mM, 1.5 μL), chloramphenicol (CHL, 2 mM, 1 μL), erythromycin (Ery, 7 mM, 1 μL), and levofloxacin (Lev, 70 nM, 1 μL), were applied to an agar plate that already contained a lawn of the reporter strain. After being incubated overnight at 37 °C, the plate was scanned by ChemiDoc (Bio-Rad) in the modes, “Cy3-blot” for RFP and “Cy5-blot” for Katushka2S.

E. coli ∆tolC-CAT = experiment: MIC determination, broth microdilution; format: cell-based; conditions: Escherichia coli
Method: E. coli ∆tolC CHL-resistant strain harboring plasmid encoding for chloramphenicol acetyltransferase (cat) (pCA24N-LacZ) and the control E. coli ∆tolC strain was used to evaluate the inhibitory effect of the compounds. CHL-resistant strains of B. subtilis pHT01-cat and B. subtilis pHT01-cfr were prepared by means of a transformation of a B. subtilis 168 strain with plasmids harboring the cat and cfr genes (chloramphenicol-florfenicol resistance) gene. The cfr gene encodes for the methyltransferase, which catalyzes the methylation of […] in the 23S rRNA and causes resistance to a variety of ribosome-targeting antibiotics that bind in the A site of the bacterial ribosome.
A standard laboratory strain of E. coli JW5503, with the deletion of the tolC gene, referred to here as the ∆tolC strain, was used to obtain the ∆tolC pCA24N-LacZ strain by means of transformation with the plasmid pCA24N-LacZ-harboring chloramphenicol acetyltransferase (cat) gene.
The MICs for CAM-Cn-TPP and Cn-TPP were determined by Mueller-Hinton broth microdilution, as recommended by CLSI in the Methods for Dilution Antimicrobial Susceptibility Tests for Bacteria that Grow Aerobically, Approved Standard, 9th ed., CLSI document M07-A9, using in-house-prepared panels. The compounds were diluted in a 96-well microtiter plate to final concentrations ranging from 0.5 to 360 μM in a 250-µL aliquot of the bacterial suspension, followed by incubation at 37 °C or 30 °C for 18 h. […] The bacterial growth was observed visually alongside OD measurements. The experiments were carried out in triplicate.

For `O=C(CCCCCCCCCC[P+](c1ccccc1)(c1ccccc1)c1ccccc1)NCCCC(=O)N[C@H](CO)[C@H](O)c1ccc([N+](=O)[O-])cc1` [CAM-C14-TPP, N-[(1R,2R)-1,3-dihydroxy-1-(4-nitrophenyl)propan-2-yl]-4-(triphenyl)phosphoniumundecanamidobutamide bromide], which Kd (E. coli 70S ribosomes) is on record?
The Kd was 36 ± 9 µM.

What about the “lower affinity to the 70S ribosome compared to CHL” value (E. coli 70S ribosomes; ratio of KDapp) of the same compound?
The value was ~ 13 fold.

What about the “lower affinity to the 70S ribosome compared to other CAM-Cn-TPPs” value (E. coli 70S ribosomes; ratio of KDapp) of the same compound?
Its value is 60-90 fold.

What about the GI50 (VA13) of the same compound?
The GI50 was 5.2 ± 0.9 µM.

And the GI50 (HEK293T)?
The GI50 was 3.6 ± 0.5 µM.

What about the GI50 (MCF7) of the same compound?
Its GI50 is 5.8 ± 0.8 µM.

And the “induction of reporters (Katushka2S: ribosome stalling; RFP: DNA damage)” value [1]?
Its value is “red pseudocolor rings are observed due to the expression of the fluorescent protein, Katushka2S (but not RFP)”.

What about the MIC (E. coli ∆tolC-CAT) of the same compound?
Its MIC is 12.5 µM.

What does the source list for `O=C(N[C@H](CO)[C@H](O)c1ccc([N+](=O)[O-])cc1)C(Cl)Cl` [CHL, chloramphenicol]?
Kd (E. coli 70S ribosomes): 2.8 ± 0.4 µM; GI50 (VA13): > 50 µM; GI50 (HEK293T): > 50 µM; GI50 (MCF7): > 50 µM; induction of reporters (Katushka2S: ribosome stalling; RFP: DNA damage) [1]: red pseudocolor rings are observed due to the expression of the fluorescent protein, Katushka2S (but not RFP); MIC (E. coli ∆tolC-CAT): > 360 µM

What does the source list for `O=C(CCCCCCCCCC[P+](c1ccccc1)(c1ccccc1)c1ccccc1)N[C@H](CO)[C@H](O)c1ccc([N+](=O)[O-])cc1` [CAM-C10-TPP, (N-{[(1R,2R)-1,3-dihydroxy-1-(4-nitrophenyl)propan-2-yl]amino}-11-oxoundecyl)(triphenyl)phosphonium bromide]?
Kd (E. coli 70S ribosomes): 0.4 ± 0.04 µM; greater affinity to the ribosome compared to CAM-C4-TPP (E. coli 70S ribosomes; ratio of KDapp): ~ 1.5 fold; greater affinity to the ribosome compared to the parent CHL (E. coli 70S ribosomes; ratio of KDapp): ~ 7 fold; GI50 (VA13): 2.8 ± 0.5 µM; GI50 (HEK293T): 0.62 ± 0.04 µM; GI50 (MCF7): 1 ± 0.1 µM; induction of reporters (Katushka2S: ribosome stalling; RFP: DNA damage) [1]: red pseudocolor rings are observed due to the expression of the fluorescent protein, Katushka2S (but not RFP); MIC (E. coli ∆tolC-CAT): 25 µM
